# Biological target: T1, LmxCLK1 (Leishmania mexicana, UniProt E9AMP2)
# T1 sequence (E9AMP2 1-422): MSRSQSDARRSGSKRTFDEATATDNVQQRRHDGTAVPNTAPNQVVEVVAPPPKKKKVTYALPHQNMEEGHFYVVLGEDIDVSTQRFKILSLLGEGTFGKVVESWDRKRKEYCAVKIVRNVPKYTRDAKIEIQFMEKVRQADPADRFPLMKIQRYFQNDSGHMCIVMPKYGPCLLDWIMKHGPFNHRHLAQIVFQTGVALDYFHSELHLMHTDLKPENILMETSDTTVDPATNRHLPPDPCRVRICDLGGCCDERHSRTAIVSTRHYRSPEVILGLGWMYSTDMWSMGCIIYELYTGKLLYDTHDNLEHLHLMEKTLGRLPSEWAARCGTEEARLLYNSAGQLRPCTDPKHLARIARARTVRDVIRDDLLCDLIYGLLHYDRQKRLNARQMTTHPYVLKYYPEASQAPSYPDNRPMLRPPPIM
# Assay: biochemical
# Type: binding
# Details: not given
SMILES,ΔTm Average,ΔTm Run 1,ΔTm Run 2
Nc1nc(N)c2nc(-c3cccc(O)c3)c(-c3cccc(O)c3)nc2n1 [TG100-115],1.5 °C,1.7 °C,1.3 °C
CCOc1cc(N2CCC(O)CC2)ccc1Nc1ncc2c(n1)N(C)c1ccccc1C(=O)N2C [XMD8-92],-0.3,-0.2,-0.5
CCO.N#CC(=C(/N)Sc1ccccc1N)/C(C#N)=C(\N)Sc1ccccc1N [U0126-EtOH],-0.1,-0.4,0.1 °C
COc1c(C)c(C(=O)c2ccc(N)c(C(=O)[O-])c2)n2ccccc12.[Na+] [SSR128129E],-0.1,-0.1,-0.1
COc1ccc2cc(-c3nc(-c4ccc([S+](C)[O-])cc4)[nH]c3-c3ccncc3)ccc2c1 (stereo not drawn) [Tie2 kinase inhibitor],0.1 °C,0.1 °C,0 °C

# Same assay, conditions: DSF, 10 µM compound, 2 µM LmxCLK1, Run 1
row,SMILES,ΔTm Run 1 [°C]
1,O=C(NOCC(O)CO)c1cc(Br)c(F)c(F)c1Nc1ccc(I)cc1F (stereo not drawn) [PD318088],0.4
2,O=C(NCc1cccc(O)c1)Nc1nc(-c2ccncc2)cs1 [RKI-1447],-0.1
3,Cc1ccc(NC(=O)c2cccc(C(C)(C)C#N)c2)cc1Nc1ccc2ncn(C)c(=O)c2c1 [AZ 628],0.4
4,Cn1cc(-c2ccc3ncc(Cc4ccc5ncccc5c4)n3n2)cn1 [NVP-BVU972],0.3
5,CC(=O)c1c(C)c2cnc(Nc3ccc(N4CCNCC4)cn3)nc2n(C2CCCC2)c1=O.Cl [Palbociclib (PD-0332991) HCl],0.6
6,N#Cc1c(NC(=O)c2cccc3ccccc23)sc2c1CCCC2 [JNK Inhibitor IX],0.3
7,Cc1ccc(C(=O)Nc2ccc(CN3CCN(C)CC3)c(C(F)(F)F)c2)cc1C#Cc1cnc2cccnn12 [Ponatinib (AP24534)],0.0
8,CC(C)c1cnn2c(NCc3ccccc3)cc(NCCCCCCN)nc12.Cl [BS-181 HCl],-0.3

# Same assay, conditions: DSF, 10 µM compound, 2 µM LmxCLK1, Run 1; read-out: ΔTm Run 1
row,SMILES,ΔTm at 10 µM [°C]
1,OCCn1cc(-c2ccc3c(c2)CC/C3=N\O)c(-c2ccncc2)n1 [GDC-0879],0
2,COc1ccc(-c2ccc3c(N4CCOCC4)nc(N4C[C@@H](C)O[C@@H](C)C4)nc3n2)cc1CO [KU-0063794],0.1
3,N#Cc1ccc2[nH]c(O)c(-c3ccc(CN4CCOCC4)cn3)c2c1 [AZD1080],0.1
4,Cc1cc(Nc2ncc(Cl)c(Nc3ccccc3S(=O)(=O)C(C)C)n2)c(OC(C)C)cc1C1CCNCC1 [LDK378],0.4
5,FC(F)c1nc2ccccc2n1-c1nc(N2CCOCC2)nc(N2CCOCC2)n1 [ZSTK474],0
6,Cc1[nH]c(/C=C2\C(=O)Nc3ccc(S(=O)(=O)Cc4c(Cl)cccc4Cl)cc32)c(C)c1C(=O)N1CCC[C@@H]1CN1CCCC1 [PHA-665752],0.1
7,Cn1cc(-c2[nH]c3cc(NC(=O)[C@H](N)C4CCCCC4)cc4c3c2C=NNC4=O)cn1 [PF-477736],1.3

# Same assay, conditions: DSF, 10 µM compound, 2 µM LmxCLK1, Run 2
row,SMILES,ΔTm Run 2 [°C]
1,O=C(NOCC(O)CO)c1cc(Br)c(F)c(F)c1Nc1ccc(I)cc1F (stereo not drawn) [PD318088],0.1
2,O=C(NCc1cccc(O)c1)Nc1nc(-c2ccncc2)cs1 [RKI-1447],-0.1
3,Cc1ccc(NC(=O)c2cccc(C(C)(C)C#N)c2)cc1Nc1ccc2ncn(C)c(=O)c2c1 [AZ 628],0.2
4,Cn1cc(-c2ccc3ncc(Cc4ccc5ncccc5c4)n3n2)cn1 [NVP-BVU972],0.0
5,CC(=O)c1c(C)c2cnc(Nc3ccc(N4CCNCC4)cn3)nc2n(C2CCCC2)c1=O.Cl [Palbociclib (PD-0332991) HCl],0.4
6,N#Cc1c(NC(=O)c2cccc3ccccc23)sc2c1CCCC2 [JNK Inhibitor IX],-0.1
7,Cc1ccc(C(=O)Nc2ccc(CN3CCN(C)CC3)c(C(F)(F)F)c2)cc1C#Cc1cnc2cccnn12 [Ponatinib (AP24534)],-0.1
8,CC(C)c1cnn2c(NCc3ccccc3)cc(NCCCCCCN)nc12.Cl [BS-181 HCl],-0.2

# Same assay, conditions: DSF, 10 µM compound, 2 µM LmxCLK1, Run 2; read-out: ΔTm Run 2
row,SMILES,ΔTm at 10 µM [°C]
1,OCCn1cc(-c2ccc3c(c2)CC/C3=N\O)c(-c2ccncc2)n1 [GDC-0879],-0.2
2,COc1ccc(-c2ccc3c(N4CCOCC4)nc(N4C[C@@H](C)O[C@@H](C)C4)nc3n2)cc1CO [KU-0063794],0.1
3,N#Cc1ccc2[nH]c(O)c(-c3ccc(CN4CCOCC4)cn3)c2c1 [AZD1080],-0.2
4,Cc1cc(Nc2ncc(Cl)c(Nc3ccccc3S(=O)(=O)C(C)C)n2)c(OC(C)C)cc1C1CCNCC1 [LDK378],0
5,FC(F)c1nc2ccccc2n1-c1nc(N2CCOCC2)nc(N2CCOCC2)n1 [ZSTK474],0
6,Cc1[nH]c(/C=C2\C(=O)Nc3ccc(S(=O)(=O)Cc4c(Cl)cccc4Cl)cc32)c(C)c1C(=O)N1CCC[C@@H]1CN1CCCC1 [PHA-665752],0.1
7,Cn1cc(-c2[nH]c3cc(NC(=O)[C@H](N)C4CCCCC4)cc4c3c2C=NNC4=O)cn1 [PF-477736],1.2

# Same assay, conditions: DSF, 10 µM compound, 2 µM LmxCLK1, mean of two runs
row,SMILES,ΔTm Average [°C]
1,O=C(NOCC(O)CO)c1cc(Br)c(F)c(F)c1Nc1ccc(I)cc1F (stereo not drawn) [PD318088],0.2
2,O=C(NCc1cccc(O)c1)Nc1nc(-c2ccncc2)cs1 [RKI-1447],-0.1
3,Cc1ccc(NC(=O)c2cccc(C(C)(C)C#N)c2)cc1Nc1ccc2ncn(C)c(=O)c2c1 [AZ 628],0.3
4,Cn1cc(-c2ccc3ncc(Cc4ccc5ncccc5c4)n3n2)cn1 [NVP-BVU972],0.2
5,CC(=O)c1c(C)c2cnc(Nc3ccc(N4CCNCC4)cn3)nc2n(C2CCCC2)c1=O.Cl [Palbociclib (PD-0332991) HCl],0.5
6,N#Cc1c(NC(=O)c2cccc3ccccc23)sc2c1CCCC2 [JNK Inhibitor IX],0.1
7,Cc1ccc(C(=O)Nc2ccc(CN3CCN(C)CC3)c(C(F)(F)F)c2)cc1C#Cc1cnc2cccnn12 [Ponatinib (AP24534)],-0.1
8,CC(C)c1cnn2c(NCc3ccccc3)cc(NCCCCCCN)nc12.Cl [BS-181 HCl],-0.3

# Same assay, conditions: DSF, 10 µM compound, 2 µM LmxCLK1, mean of two runs; read-out: ΔTm Average
row,SMILES,ΔTm at 10 µM [°C]
1,OCCn1cc(-c2ccc3c(c2)CC/C3=N\O)c(-c2ccncc2)n1 [GDC-0879],-0.1
2,COc1ccc(-c2ccc3c(N4CCOCC4)nc(N4C[C@@H](C)O[C@@H](C)C4)nc3n2)cc1CO [KU-0063794],0.1
3,N#Cc1ccc2[nH]c(O)c(-c3ccc(CN4CCOCC4)cn3)c2c1 [AZD1080],-0.1
4,Cc1cc(Nc2ncc(Cl)c(Nc3ccccc3S(=O)(=O)C(C)C)n2)c(OC(C)C)cc1C1CCNCC1 [LDK378],0.2
5,FC(F)c1nc2ccccc2n1-c1nc(N2CCOCC2)nc(N2CCOCC2)n1 [ZSTK474],0
6,Cc1[nH]c(/C=C2\C(=O)Nc3ccc(S(=O)(=O)Cc4c(Cl)cccc4Cl)cc32)c(C)c1C(=O)N1CCC[C@@H]1CN1CCCC1 [PHA-665752],0.1
7,Cn1cc(-c2[nH]c3cc(NC(=O)[C@H](N)C4CCCCC4)cc4c3c2C=NNC4=O)cn1 [PF-477736],1.2

# Same assay, conditions: read-out: ΔTm Average
row,SMILES,ΔTm at 10 µM [°C]
1,Nc1nc(N)c(N=O)c(OCC2CCCCC2)n1 [NU6027],0

# Same assay, conditions: read-out: ΔTm Run 1
row,SMILES,ΔTm at 10 µM [°C]
1,Nc1nc(N)c(N=O)c(OCC2CCCCC2)n1 [NU6027],0.1

# Same assay, conditions: read-out: ΔTm Run 2
row,SMILES,ΔTm at 10 µM [°C]
1,Nc1nc(N)c(N=O)c(OCC2CCCCC2)n1 [NU6027],-0.2
